# Results published in US12686680B2, “Substituted pyrazolo[1,5-α]pyrimidines as CRF receptor antagonists” (Neurocrine Biosciences, Inc., priority 2019, dated 2026).
# Columns and labels:
# [1] = Solubility determination of solid forms of Compound 1 in solvents (Example 52); assay type: physicochemical
# Excerpt: X-Ray Powder diffraction (XRPD), differential scanning calorimetry (DSC), thermal gravimetric analysis (TGA), and UV-Metric/pH-Metric Titration (SiriusT3) were used to characterize Form I of Compound 1. UPLC was used to evaluate solubility of each material in various vehicles.
# CRF1 receptor = target: T1, CRF1 receptor (Homo sapiens, UniProt P34998); assay: CRF1 receptor binding kinetics (association/dissociation rate constants, method of Fleck et al.)
# T1 sequence (P34998 24-415): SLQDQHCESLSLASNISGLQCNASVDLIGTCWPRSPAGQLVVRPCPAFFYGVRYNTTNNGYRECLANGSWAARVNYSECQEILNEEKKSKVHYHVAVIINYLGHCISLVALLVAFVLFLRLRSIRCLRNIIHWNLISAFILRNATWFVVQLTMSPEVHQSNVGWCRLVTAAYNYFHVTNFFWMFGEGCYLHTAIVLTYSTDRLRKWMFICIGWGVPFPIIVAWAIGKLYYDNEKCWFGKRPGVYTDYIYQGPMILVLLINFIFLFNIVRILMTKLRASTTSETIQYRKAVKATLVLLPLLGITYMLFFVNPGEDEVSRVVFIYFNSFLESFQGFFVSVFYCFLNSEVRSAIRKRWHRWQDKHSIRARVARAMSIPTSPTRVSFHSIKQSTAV
# Description: The association (k1) and dissociation (k−1) rate constants defining binding of the Compounds to the CRF1 receptor were determined by the method described in Fleck et al. (J. Pharmacology and Experimental Therapeutics, 341(2):518-531, 2012) (hereinafter “Fleck et al.” and incorporated by reference in its entirety). As described therein, the activity of a CRF1 receptor antagonist can be expressed as the kinetically derived affinity (Ki) calculated from the association (k1) and dissociation (k−1) rate constants by the following equation: Ki=k−1/k1
# The Compounds listed in Table 5 were evaluated according to these procedures, and the kinetic Ki was determined and found to be as follows: […]
Measured pH ([1]; 50 mM CB pH 3),Solubility ([1]; 50 mM CB pH 3),Measured pH ([1]; 50 mM CB pH 4),Solubility ([1]; 50 mM CB pH 4),Measured pH ([1]; 50 mM CB pH 6),Solubility ([1]; 50 mM CB pH 6),Measured pH ([1]; 50 mM PB pH 2),Solubility ([1]; 50 mM PB pH 2),Measured pH ([1]; 50 mM PB pH 8),Solubility ([1]; 50 mM PB pH 8),Measured pH ([1]; 100% H2O),Solubility ([1]; 100% H2O),Measured pH ([1]; 50 mM BB pH 9),Solubility ([1]; 50 mM BB pH 9),Solubility ([1]; ACN),Solubility ([1]; Acetone),Solubility ([1]; DMSO),Solubility ([1]; EtOAc),Solubility ([1]; EtOH),Solubility ([1]; IPA),SMILES,other results
pH 3.3,1.7 mg/mL FB,pH 4.1,0 mg/mL FB,pH 6.1,0 mg/mL FB,pH 3.1,3.3 mg/mL FB,pH 8.1,0 mg/mL FB,pH 8.3,0 mg/mL FB,–,–,–,–,–,–,–,–,"CCCN(Cc1ccc(-c2csc(N(C)C)n2)cc1)c1cc(C)nc2c(-c3cnc(N(C)C)cc3C)c(C)nn12 [Compound 1-2 (FB), 5-{7-[({4-[2-(dimethylamino)-1,3-thiazol-4-yl]phenyl}methyl)(propyl)amino]-2,5-dimethylpyrazolo[1,5-a]pyrimidin-3-yl}-N,N,4-trimethylpyridin-2-amine]",Measured pH ([1]; 50 mM CB pH 5): pH 5.0; Solubility ([1]; 50 mM CB pH 5): 0 mg/mL FB; Measured pH ([1]; 50 mM PB pH 7): pH 7.1; Solubility ([1]; 50 mM PB pH 7): 0 mg/mL FB
pH 3.2,0.3 mg/mL FB,pH 3.9,0 mg/mL FB,pH 5.3,Below,pH 2.5,3.9 mg/mL FB,pH 6.2,Below,pH 3.4,0 mg/mL FB,pH 4.3,Below,3.6 mg/mL FB,4.1 mg/mL FB,>2.5 mg/mL FB,1.2 mg/mL FB,6.5 mg/mL FB,1.9 mg/mL FB,"CCCN(Cc1ccc(-c2csc(N(C)C)n2)cc1)c1cc(C)nc2c(-c3cnc(N(C)C)cc3C)c(C)nn12 [Compound 1-4 (Maleate), 5-{7-[({4-[2-(dimethylamino)-1,3-thiazol-4-yl]phenyl}methyl)(propyl)amino]-2,5-dimethylpyrazolo[1,5-a]pyrimidin-3-yl}-N,N,4-trimethylpyridin-2-amine]",Solubility ([1]; MeOH): 27.1 mg/mL FB
–,–,–,–,–,–,–,–,–,–,–,–,–,–,–,–,–,–,–,–,"CCCN(Cc1ccc(-c2ccccn2)cc1)c1cc(C)nc2c(-c3cnc(N(C)C)cc3C)c(C)nn12 [Compound 3, 5-{2,5-dimethyl-7-[propyl({[4-(pyridin-2-yl)phenyl]methyl})amino]pyrazolo[1,5-a]pyrimidin-3-yl}-N,N,4-trimethylpyridin-2-amine]","Ki (CRF1 receptor; Ki=k−1/k1, read-out: Kinetic Ki): < 0.36 nM; k1 (CRF1 receptor; association rate constant): 2.9 ± 0.92 10^6M^−1min^−1; k^−1 (CRF1 receptor; dissociation rate constant): <0.001 min⁻¹"
pH 3.4,1.0 mg/mL FB,pH 4.0,0.1 mg/mL FB,pH 5.1,0 mg/mL FB,pH 3.0,4.7 mg/mL FB,pH 6.7,0 mg/mL FB,pH 3.5,0.8 mg/mL FB,pH 3.2,0.2 mg/mL FB,3.1 mg/mL FB,1.0 mg/mL FB,>2.1 mg/mL FB,0.6 mg/mL FB,16.6 mg/mL FB,2.3 mg/mL FB,"CCCN(Cc1ccc(-c2csc(N(C)C)n2)cc1)c1cc(C)nc2c(-c3cnc(N(C)C)cc3C)c(C)nn12 [Compound 1-5 (Mesylate), 5-{7-[({4-[2-(dimethylamino)-1,3-thiazol-4-yl]phenyl}methyl)(propyl)amino]-2,5-dimethylpyrazolo[1,5-a]pyrimidin-3-yl}-N,N,4-trimethylpyridin-2-amine]",Solubility ([1]; MeOH): 134.4 mg/mL FB
